Data on two compounds can be found in US20050152967A1, “Dynamic variable release” (PFab, LP, priority 2003, published 2005).

Data set [1] is described as follows: in vitro dissolution (acid/base dissolution bath, USP apparatus, HPLC). The class given is physicochemical. How it is done:
The amount of active dissolution over time, e.g., guaifenesin and/or phenylephrine in the tablets or capsules disclosed herein below may be tested as follows. Briefly, in vitro guaifenesin or phenylephrine release may be determined using an acid/base dissolution bath, e.g., a standard USP 23/NF Drug Release Apparatus. Dissolution vessels of a USP calibrated dissolution bath, equipped with shafts and paddles, are filled with 675 ml of 0.1N hydrochloric acid at 37.0 degrees Centigrade. The bath and vessels are maintained at a temperature of 37.0±0.5 degrees Centigrade throughout a standard 7 hour dissolution test. […] One tablet or capsule is dropped into each vessel.
At the testing intervals, e.g., 1 minute, 10, 10, 30, 45, 60 or 90 minutes, 2, 3, 4, 6, 7, 9 or 12 hour testing intervals, an aliquot, e.g., 5 mls of dissolution solution is withdrawn from each vessel, filtered (e.g., through a 10-22 micron polyethylene filter) and tested using an HPLC. To stop the dissolution a strong base may be added to the sample, e.g., 0.2M sodium phosphate tribasic to increase the pH of the solution to about 6.8. The percent dissolution is determined using HPLC.

A short description of data set [2]: accelerated stability of capsules (dissolution and assay over time). The class given is physicochemical.
From the text: The material was placed on accelerated stability.
Stability: Capsules were studied for stability.
The conditions of data set [3]: water and alcohol; cited from earlier work.

As for `CNC[C@@H](O)c1cccc(O)c1.Cl` [Phenylephrine hydrochloride, (S)-3-hydroxy-α[(methylamino)methyl]benzenemethanol hydrochloride], in data set [1] (phenylephrine overcoated with immediate release gauifenesin), the release of phenylephrine result is on record as “slowed the release of the phenylephrine to an unacceptable level”. Further, the “dissolution rate of phenylephrine” value in data set [1] (when combined with Gauifenesin DC) is “accelerated”. In addition, in data set [2] (capsules on accelerated stability, month to month), the release profile result is reported as “first order release profile consistent with an 8 hour product”.
As for `COc1ccccc1OCC(O)CO` (stereo not shown) [Guaifenesin, 3(2-methoxyphenoxy)-1,2-propanediol], the “release profile for gauifenesin” value in data set [1] (sustain releasing both actives) is on record as “poor release profile”. For the same compound, the “potency on accelerated stability” value in data set [2] is listed as “stable potency”. In data set [2] (capsules on accelerated stability), the released immediately came to 100%. Moreover, the solubility result in data set [3] was “soluble in water and alcohol”.
